Patent US8404435B2, “Enigma-Mdm2 interaction and uses thereof” (Korea Research Institute of Bioscience and Biotechnology, priority 2009, dated 2013)

Experiments:
[1] = test system: Mdm2+/+p53-/- MEF cell lines; experiment: HGF effect on SRF-Enigma-Mdm2 pathway with or without PD98059; format: cell-based, mouse; conditions: Ad-p53 or Ad-LacZ induced
Text: Since an MAP kinase is known to be associated with SRF expression by cell growth factor (J Physiol Pharmacol 53, 147-157, 53, 2002), the present inventors hypothesized that an MAP kinase is associated with regulation of SRF-Enigma-Mdm2 pathway, and tested by using PD98059, MAP kinase-specific inhibitor. The present inventors treated the cells with HGF and with or without PD98059 after inducing Ad-p53 or Ad-LacZ into Mdm2^+/+p53^−/− MEF cell lines. As the result, PD98059 abolished the HGF effect on SRF-Enigma-Mdm2 pathway (FIG. 10E).

[2] = test system: MEF (mouse embryonic fibroblast); experiment: Serum response of SRF-Enigma-Mdm2 pathway in MEF; format: cell-based
Method: (§1) The present inventors identified serum response by using MRC5 (human normal fibroblast), MEF (mouse embryonic fibroblast) to identify presence of SRF-Enigma-Mdm2 pathway in normal cells. In case of MRC5, activity of SRF-Enigma-Mdm2 pathway by serum was inhibited when siSRF (10, 15 μg) is induced or PD98059 is present; in case of MEF, activity of SRF-Enigma-Mdm2 pathway was inhibited by PD98059 (FIGS. 12A and 12C). Thus, an amount of protein by transcriptional activity increased for SRF, Enigma, transcript level for Mdm2 (p1-Mdm2) and p53 was unvaried. However, transcript level for p2-Mdm2 changed dependently on an amount of p53 expression (FIGS. 12B and 12D).

[3] = test system: MRC5 (human normal fibroblast); experiment: Serum response of SRF-Enigma-Mdm2 pathway in MRC5; format: cell-based
Method: as §1

Enigma promoter = experiment: SRE-Luc / ΔSRE-Luc Enigma promoter reporter assay; format: cell-based; conditions: HLK3; 20, 40 ng/ml, 6 hours
Method: After Enigma-Luc was induced into an HLK3 cell line (0.5 μg), was cultured in DMEM with 0.1% […] for 24 hours, and was cultured with 5% and 20% FBS added for 6 hours again, luciferase activity of collected cells were measured. As the result, activity of Enigma-Luc increased dependently on the concentration of serum (FIG. 9B).
After SRE-Luc (0.5 μg), ΔSRE-Luc (0.5 μg), which were produced to test SRF dependence of Enigma expression, were induced into an HLK3 cell line, the cells were cultured in DMEM with 0.1% FBS for 24 hours, and were cultured with 5% and 20% FBS, FGF (20, 40 ng/ml), or HGF (20, 40 ng/ml) added for 6 hours again, luciferase activity of collected cells were measured.

HLK3 cell line = experiment: HGF effect on SRF-Enigma-Mdm2-p53 pathway, Western blotting; format: cell-based; conditions: HGF 40, 60 ng/ml, 4 hours before cell collection
Method: The present inventors investigated whether SRF-Enigma-Mdm2 pathway is also regulated by HGF. The present inventors, to show specific relevance of SRF, Enigma, identified changes in each protein by a Western blotting after inducing 10 μg each of siEnigma, siSRF into an HLK3 cell line, culturing them in a condition of removing serum, and processing each with HGF (40, 60 ng/ml) 4 hours before cell collection. […] Furthermore, the present inventors observed a change in Enigma and Mdm2 after directly inducing F-SRF into an HLK3 cell line concentration-wise (5, 10 μg).

mouse liver = experiment: SRF-Enigma-Mdm2-p53 pathway in mouse liver, Western blotting; format: in vivo, mice (Balb/c); conditions: HGF 100 μg/kg into tail vein, livers removed time-wise
Method: The present inventors identified a change in SRF-Enigma-Mdm2-p53 by a Western blotting after injecting each of Ad-p53 or Ad-LacZ virus (5×10^8 pfu) into tail vein of mice (Balb/c, Female, Taconic) and after 24 hours injecting HGF (100 μg/kg) into tail vein of mice again, removing livers time-wise. As the result, HGF induced protein expression by transcriptionally activating SRF, Enigma was induced by SRF at transcription level, and an amount of protein increased.
The present inventors, to observe a change in Mdm2-p53 according to a direct change in an amount of Enigma expression, identified an amount of each protein by a Western blotting after injecting or not injecting Ad-p53 into tail vein of mice (Balb/c, Female, Taconic) and after 24 hours injecting Ad-F-Enigma, Ad-LacZ, PBS into tail vein of mice again, removing livers after 48 hours. Furthermore, after injecting Ad-siEnigma, Ad-siControl and PBS into tail vein and injecting HGF into tail vein 8 hours before liver removal.

Mdm2 [4] = molecular target: T1, Mdm2 (Homo sapiens, UniProt Q00987); experiment: In vitro ubiquitination assay; format: biochemical
T1 construct: His; made in house; host or cells: E. coli
T1 sequence (Q00987 whole entry): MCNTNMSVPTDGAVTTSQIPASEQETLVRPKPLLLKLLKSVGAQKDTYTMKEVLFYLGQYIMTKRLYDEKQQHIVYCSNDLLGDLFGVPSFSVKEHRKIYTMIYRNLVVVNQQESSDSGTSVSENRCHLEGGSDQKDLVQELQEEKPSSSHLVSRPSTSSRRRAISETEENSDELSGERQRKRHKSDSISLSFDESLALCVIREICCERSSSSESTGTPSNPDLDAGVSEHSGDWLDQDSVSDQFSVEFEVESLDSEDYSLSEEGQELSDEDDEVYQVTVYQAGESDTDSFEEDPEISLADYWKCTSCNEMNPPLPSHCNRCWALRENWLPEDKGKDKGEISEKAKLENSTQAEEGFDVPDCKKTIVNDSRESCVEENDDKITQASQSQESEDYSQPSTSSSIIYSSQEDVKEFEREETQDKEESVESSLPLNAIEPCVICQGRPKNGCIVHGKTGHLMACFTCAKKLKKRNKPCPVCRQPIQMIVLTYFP
Method: In vitro ubiquitination assay was performed to test self-ubiquitination of Mdm2 by Enigma's binding. After ubiquitin reaction mixture (including E1, E2, His-Ub, ATP) was added and reacted to His-Mdm2 protein (0.5 μg), His-Mdm2 (C464A: 0.5 μg), Enigma protein (0.5, 1 μg), F-EniΔLIM3 (1 μg), a change in self-ubiquitination and binding proteins for Mdm2 were identified by an IP/IB method. As the result, self-ubiquitination of Mdm2 was inhibited by F-Enigma, which binds to Mdm2, and Enigma had no effect on an Mdm2 (C464A) variant where 464-cysteine on the Mdm2 RING finger region was substituted by alanine (FIG. 7C). Also, Enigma stimulated Mdm2-mediated p53 ubiquitination in vitro (FIG. 7D). Thus, Enigma was identified as a determining factor that shifts specificity of Mdm2 E3 ligase from itself toward p53.
PCAF (p300-CBP-associated factor) induces the ubiquitination of Mdm2 (Nat Cell Biol 9, 331-338, 2007). When proteins purified from bacteria and described in FIG. 5-1a were used to perform an in-vitro ubiquitin experiment, Enigma had no effect on Mdm2 ubiquitination by PCAF (FIG. 8A). This event was also tested in an Mdm2^−/−p53^−/− MEF cell line (FIG. 8B).

Mdm2 [5] = molecular target: T1, Mdm2; experiment: In vitro binding assay (GST pull-down / IP) of purified proteins; conditions: proteins purified from E. coli
Method: The present inventors, to test interaction between Enigma and Mdm2, generated mutants (F-PDZ, F-PDZ-LIM1, F-LIM) of Enigma in pCMVtaq2B vector by a common PCR cloning method, and produced mutants (GST-1-100, GST-101-491, GST-201-491, GST-301-491) of Mdm2 in pEBG vector by a PCR cloning method. His-Mdm2, Enigma, GST-p53, EniΔLIM3 proteins were respectively separated and purified from E. coli to identify the interaction in vitro.
In vitro binding assay was performed to identify directly in-vitro interaction between respective proteins (1 μg His-Mdm2, 0.5 μg Enigma, 1 μg GST-p53) which are separated and purified from E. coli. Binding between respective proteins were induced after mixing, the bindings between proteins were identified by a GST pull-down and an IP method.
A binding site was determined by using respective mutants produced from Enigma and Mdm2. First, each mutant vector (5 μg) was introduced into a 293 cell line where Hag-Enigma is constitutively expressed, and afterwards binding was identified by GST pull-down and by a Western blotting with a Hag antibody (FIG. 5D). Also, each Enigma mutant (5 μg) and GST-Mdm2 expression vector (5 μg) were introduced into a 293T cell line (ATCC) by a calcium phosphate method. At 24 hours, the cells were collected, and binding was identified by IP with a Flag antibody and by a Western blotting with a GST antibody (FIG. 5E). […]

COc1cccc(-c2cc(=O)c3ccccc3o2)c1N [PD98059]
HGF effect on SRF-Enigma-Mdm2 pathway [1]: abolished
activity of SRF-Enigma-Mdm2 pathway [2]: inhibited
activity of SRF-Enigma-Mdm2 pathway by serum [3]: inhibited

HGF: growth factor
reporter activity of SRE-Luc but not ΔSRE-Luc (Enigma promoter): increased dependently on the concentration of growth factor
changes in SRF, Enigma, Mdm2, p53 protein (HLK3 cell line): an increase in SRF-Enigma-Mdm2 and a SRF- or Enigma-dependent decrease in p53
amount of protein of Mdm2 and p53 in liver (mouse liver): the amount of protein in Mdm2 increased and simultaneously that of p53 decreased

Enigma: Enigma protein separated and purified from E. coli
Mdm2-mediated p53 ubiquitination in vitro (Mdm2 [4]): stimulated
Mdm2 ubiquitination by PCAF in vitro (Mdm2 [4]): no effect
self-ubiquitination of Mdm2 in vitro (Mdm2 [4]; Enigma protein 0.5, 1 μg, His-Mdm2 0.5 μg): inhibited
binding to Mdm2 in vitro (Mdm2 [5]): bound to Mdm2 directly
